Measurements published in EPA's CvTdb concentration-time database.

Tests used:
Experiment in all cases: concentration in plasma after dosing
Rat [1] = settings: dosed: Anthraquinone, 40 mg/kg, oral, Female, Harlan Sprague Dawley
Rat [2] = settings: dosed: Anthraquinone, 40 mg/kg, oral, Male, Harlan Sprague Dawley
Rat [3] = settings: dosed: Anthraquinone, 100 mg/kg, oral, Female, Harlan Sprague Dawley
Rat [4] = settings: dosed: Anthraquinone, 100 mg/kg, oral, Female, Harlan Sprague Dawley; remark: listed apart in the source
Rat [5] = settings: dosed: Anthraquinone, 400 mg/kg, oral, Male, F344
Rat [6] = settings: dosed: Anthraquinone, 400 mg/kg, oral, Male, F344; remark: listed apart in the source
Rat [7] = settings: dosed: Anthraquinone, 100 mg/kg, oral, Male, F344
Rat [8] = settings: dosed: Anthraquinone, 100 mg/kg, oral, Male, F344; remark: listed apart in the source
Rat [9] = settings: dosed: Anthraquinone, 100 mg/kg, oral, Female, Harlan Sprague Dawley; remark: listed apart in the source
Rat [10] = settings: 24 h; dosed: Anthraquinone; 100 mg/kg; oral; Male; F344
Rat [11] = settings: dosed: Anthraquinone, 40 mg/kg, oral, Female, Harlan Sprague Dawley; remark: listed apart in the source
Rat [12] = settings: dosed: Anthraquinone, 100 mg/kg, oral, Female, F344
Rat [13] = settings: dosed: Anthraquinone, 100 mg/kg, oral, Male, F344; remark: listed apart in the source
Rat [14] = settings: dosed: Anthraquinone, 100 mg/kg, oral, Female, Harlan Sprague Dawley; remark: listed apart in the source
Rat [15] = settings: dosed: Anthraquinone, oral
Rat [16] = settings: dosed: Anthraquinone, 100 mg/kg, oral, Male, F344; remark: listed apart in the source
Rat [17] = settings: 24 h; dosed: Anthraquinone; 100 mg/kg; oral; Male; F344; remark: listed apart in the source
Rat [18] = settings: 24 h; dosed: Anthraquinone; 40 mg/kg; oral; Male; F344
Rat [19] = settings: dosed: Anthraquinone, 100 mg/kg, oral, Male, F344; remark: listed apart in the source
Rat [20] = settings: dosed: Anthraquinone, 40 mg/kg, oral, Male, Harlan Sprague Dawley; remark: listed apart in the source
Rat [21] = settings: dosed: Anthraquinone, 40 mg/kg, oral, Female, Harlan Sprague Dawley; remark: listed apart in the source
Rat [22] = settings: dosed: Anthraquinone, 400 mg/kg, oral, Male, F344; remark: listed apart in the source
Rat [23] = settings: dosed: Anthraquinone, 40 mg/kg, oral, Female, Harlan Sprague Dawley; remark: listed apart in the source
Rat [24] = settings: dosed: Anthraquinone, 40 mg/kg, oral, Female, Harlan Sprague Dawley; remark: listed apart in the source
Rat [25] = settings: dosed: Anthraquinone, 40 mg/kg, oral, Female, Harlan Sprague Dawley; remark: listed apart in the source
Rat [26] = settings: dosed: Anthraquinone, 100 mg/kg, oral, Male, F344; remark: listed apart in the source
Rat [27] = settings: dosed: Anthraquinone, 40 mg/kg, oral, Male, Harlan Sprague Dawley; remark: listed apart in the source
Rat [28] = settings: dosed: Anthraquinone, 40 mg/kg, oral, Female, F344
Rat [29] = settings: dosed: Anthraquinone, 100 mg/kg, oral, Male, F344; remark: listed apart in the source
Rat [30] = settings: dosed: Anthraquinone, 400 mg/kg, oral, Male, F344; remark: listed apart in the source
Rat [31] = settings: dosed: Anthraquinone, 400 mg/kg, oral, Male, F344; remark: listed apart in the source
Rat [32] = settings: dosed: Anthraquinone, 100 mg/kg, oral, Male, F344; remark: listed apart in the source
Rat [33] = settings: dosed: Anthraquinone, 40 mg/kg, oral, Male, Harlan Sprague Dawley; remark: listed apart in the source
Rat [34] = settings: dosed: Anthraquinone, 100 mg/kg, oral, Female, F344; remark: listed apart in the source
Rat [35] = settings: dosed: Anthraquinone, 100 mg/kg, oral, Male, F344; remark: listed apart in the source
Rat [36] = settings: dosed: Anthraquinone, 40 mg/kg, oral, Female, F344; remark: listed apart in the source

O=C1c2ccccc2C(=O)c2ccccc21 [Anthraquinone]
Settings	concentration in plasma [ng/mL]
Rat [1], 4 h	111
Rat [1], 8 h	255
Rat [2], 2 h	101
Rat [2], 12 h	255
Rat [3], 4 h	255
Rat [3], 8 h	992
Rat [4], 2 h	192
Rat [4], 12 h	818
Rat [5], 2 h	352
Rat [5], 12 h	2500
Rat [6], 0.5 h	163
Rat [6], 24 h	1970
Rat [7], 4 h	323
Rat [7], 8 h	758
Rat [8], 0.5 h	27
Rat [8], 24 h	349
Rat [9], 2 h	210
Rat [9], 12 h	880
Rat [11], 4 h	136
Rat [11], 8 h	280
Rat [12], 1 h	61
Rat [12], 18 h	538
Rat [13], 1 h	72
Rat [13], 18 h	596
Rat [14], 4 h	262
Rat [14], 8 h	595
Rat [16], 2 h	233
Rat [16], 12 h	719
Rat [19], 0.5 h	41
Rat [19], 24 h	433
Rat [20], 4 h	131
Rat [20], 8 h	293
Rat [21], 1 h	65
Rat [21], 18 h	87
Rat [22], 0.5 h	148
Rat [22], 24 h	2120
Rat [23], 2 h	128
Rat [23], 12 h	238
Rat [24], 2 h	90
Rat [24], 12 h	224
Rat [25], 1 h	57
Rat [25], 18 h	124
Rat [26], 0.5 h	28
Rat [26], 24 h	197
Rat [27], 2 h	99
Rat [27], 12 h	242
Rat [28], 1 h	36
Rat [28], 18 h	157
Rat [29], 2 h	120
Rat [29], 12 h	671
Rat [30], 1 h	129
Rat [30], 18 h	2320
Rat [31], 1 h	345
Rat [31], 18 h	2880
Rat [32], 1 h	55
Rat [32], 18 h	429
Rat [33], 4 h	117
Rat [33], 8 h	241
Rat [34], 1 h	63
Rat [34], 18 h	469
Rat [35], 4 h	205
Rat [35], 8 h	522
Rat [36], 1 h	61
Rat [36], 18 h	131

Settings	concentration in plasma [ng/mL]
Rat [10]	210
Rat [17]	259
Rat [18]	66

concentration in plasma [ng/mL], Rat [15]
Settings	0.5 h	1 h	2 h	4 h	8 h	12 h	18 h	24 h
40 mg/kg, Female, F344	–	30	–	–	–	–	191	–
40 mg/kg, Female, Harlan Sprague Dawley	–	61	154	149	249	224	103	65
40 mg/kg, Male, F344	–	–	–	–	–	–	–	26
40 mg/kg, Male, Harlan Sprague Dawley	–	–	87	101	203	204	–	–
100 mg/kg, Female, F344	–	66	–	–	–	–	652	–
100 mg/kg, Female, Harlan Sprague Dawley	–	–	127	232	721	610	–	–
100 mg/kg, Male, F344	–	63	157	259	611	696	415	261
400 mg/kg, Male, F344	106	235	285	–	–	2590	2700	1940
